The structures appear in SMILES notation.

The target in test [1] is full-length PI3Kα (full-length p110α/p85α) (Homo sapiens (Human), UniProt P42336). Put plainly: PI3KA_FL fluorescence polarization kinase assay (Ki). Format: biochemical. As to conditions: 41 μM ATP. For orientation: Polarisation of emitted light reports the rotation of a fluorescent probe.
For test [2], the target named is truncated PI3Kα (p110α/iSH2 p85α) (Homo sapiens (Human), UniProt P42336). Put plainly: PI3KA_Act fluorescence polarization kinase assay (Ki). Format: biochemical. The settings on record: 1 mM ATP. In a few lines: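 Ki values result from fitting fluorescence polarization signals to the Morrison equation for tight-binding competitive inhibitors. The detector was GST-Grp1 PH domain with TAMRA-PIP3, read after a 30 min room-temperature reaction of 0.5 nM truncated PI3Kα and 30 μM PIP2 at pH 7.4 in HEPES/NaCl/MgCl2/DTT/CHAPS buffer. Compounds were tested as 12-point 3-fold dilutions from 3 μM.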
Sequence of truncated PI3Kα (p110α/iSH2 p85α) (P42336 whole entry, the tested form may be a part): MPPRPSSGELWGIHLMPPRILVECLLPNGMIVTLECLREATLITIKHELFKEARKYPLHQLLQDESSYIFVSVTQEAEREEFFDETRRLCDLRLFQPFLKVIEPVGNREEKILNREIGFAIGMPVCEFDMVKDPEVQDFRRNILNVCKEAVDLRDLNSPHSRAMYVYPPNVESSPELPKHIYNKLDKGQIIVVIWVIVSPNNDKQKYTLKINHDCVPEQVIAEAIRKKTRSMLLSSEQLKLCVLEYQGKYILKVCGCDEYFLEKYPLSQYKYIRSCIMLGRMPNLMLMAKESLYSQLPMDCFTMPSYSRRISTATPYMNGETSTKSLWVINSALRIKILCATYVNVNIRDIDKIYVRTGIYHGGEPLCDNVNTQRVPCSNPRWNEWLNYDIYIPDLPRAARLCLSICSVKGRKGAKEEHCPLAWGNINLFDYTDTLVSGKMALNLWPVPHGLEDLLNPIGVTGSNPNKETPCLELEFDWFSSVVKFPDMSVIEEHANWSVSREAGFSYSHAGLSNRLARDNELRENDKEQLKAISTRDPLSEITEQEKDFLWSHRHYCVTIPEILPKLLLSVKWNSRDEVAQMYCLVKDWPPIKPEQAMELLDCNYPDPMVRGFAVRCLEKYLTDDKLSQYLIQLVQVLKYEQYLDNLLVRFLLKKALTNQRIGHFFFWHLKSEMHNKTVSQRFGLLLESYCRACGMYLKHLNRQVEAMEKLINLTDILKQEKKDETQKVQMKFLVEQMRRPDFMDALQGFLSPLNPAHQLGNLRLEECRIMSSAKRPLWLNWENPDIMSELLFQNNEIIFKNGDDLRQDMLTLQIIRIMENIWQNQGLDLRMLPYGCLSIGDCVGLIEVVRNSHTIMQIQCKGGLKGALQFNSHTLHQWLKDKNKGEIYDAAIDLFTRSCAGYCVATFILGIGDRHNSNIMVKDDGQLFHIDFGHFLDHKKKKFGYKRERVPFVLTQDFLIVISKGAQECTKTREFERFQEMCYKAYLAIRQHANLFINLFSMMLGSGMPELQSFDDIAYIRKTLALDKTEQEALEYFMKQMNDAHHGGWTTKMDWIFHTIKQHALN

Sequence of full-length PI3Kα (full-length p110α/p85α) (P42336 whole entry, the tested form may be a part): as above
Sequence of full-length PI3Kα (full-length p110α/p85α) (P27986 whole entry partner, the tested form may be a part): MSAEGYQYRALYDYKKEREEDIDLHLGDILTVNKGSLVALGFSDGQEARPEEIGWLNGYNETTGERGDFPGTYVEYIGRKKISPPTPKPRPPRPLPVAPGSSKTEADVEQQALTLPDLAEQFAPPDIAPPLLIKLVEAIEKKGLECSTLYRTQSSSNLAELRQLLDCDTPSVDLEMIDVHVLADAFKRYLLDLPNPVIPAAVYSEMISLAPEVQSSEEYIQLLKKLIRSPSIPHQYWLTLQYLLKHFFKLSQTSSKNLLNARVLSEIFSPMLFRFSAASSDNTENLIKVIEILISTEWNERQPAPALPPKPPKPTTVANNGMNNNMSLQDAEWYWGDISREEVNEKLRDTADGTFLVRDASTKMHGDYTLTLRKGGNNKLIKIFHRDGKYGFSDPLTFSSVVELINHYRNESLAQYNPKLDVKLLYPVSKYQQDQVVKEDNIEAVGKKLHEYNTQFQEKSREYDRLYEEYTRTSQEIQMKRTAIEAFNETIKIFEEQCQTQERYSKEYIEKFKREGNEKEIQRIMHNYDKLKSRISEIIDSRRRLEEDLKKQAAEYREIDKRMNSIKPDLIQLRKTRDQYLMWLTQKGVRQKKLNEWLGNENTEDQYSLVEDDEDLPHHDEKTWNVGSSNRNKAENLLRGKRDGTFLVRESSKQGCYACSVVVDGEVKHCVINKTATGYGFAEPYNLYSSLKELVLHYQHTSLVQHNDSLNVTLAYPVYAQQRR

For `C[C@H]1COCCN1c1nc(-c2cnc(N)nc2)c2c(n1)N([C@H]1CCN(C(=O)OC(C)(C)C)C1)CC2` [Example 76], in test [1], the “PI3KA_FL Ki” value is reported as 0.359 nM. In test [2], the “PI3KA_Act Ki” value is recorded as 0.182 nM.

Consider `C[C@H]1COCCN1c1nc(-c2cnc(N)nc2)c2c(n1)N([C@H]1CCN(S(C)(=O)=O)C1)CC2` [Example 79], for which, in test [1], the “PI3KA_FL Ki (nM)” value is on record as “≦0.229 nM”. For the same compound, the “PI3KA_Act Ki” value in test [2] stood at 0.257 nM.

With `CN(C)S(=O)(=O)N1CC[C@H](N2CCc3c(-c4cnc(N)nc4)nc(N4CCOCC4)nc32)C1` [Example 82], the “PI3KA_FL Ki” value in test [1] is listed as 0.240 nM. The “PI3KA_Act Ki” value in test [2] was 0.100 nM.

Regarding `CNS(=O)(=O)N1CC[C@@H](N2CCc3c(-c4cnc(N)nc4)nc(N4CCOC[C@@H]4C)nc32)C1` [Example 85], the “PI3KA_FL Ki” value in test [1] was 0.283 nM. Besides, in test [2], the “PI3KA_Act Ki” value is on record as 0.239 nM.

Take `CNS(=O)(=O)N1CC[C@@H](N2CCc3c(-c4cnc(N)nc4)nc(N4CCOC[C@@H]4C)nc32)C1` [Example 92]: the “PI3KA_FL Ki” value in test [1] was determined as 0.475 nM. Further, in test [2], the “PI3KA_Act Ki” value was determined as 0.376 nM.

In the case of `CS(=O)(=O)N1CCC[C@@H](N2CCc3c(-c4cnc(N)nc4)nc(N4CCOCC4)nc32)C1` [Example 93], the “PI3KA_FL Ki” value in test [1] is given as 0.506 nM. Also, in test [2], the “PI3KA_Act Ki” value is given as 0.603 nM.

Take `CNS(=O)(=O)O[C@H]1C[C@H](N2CCc3c(-c4cnc(N)nc4)nc(N4CCOCC4)nc32)C1` [Example 95]: the “PI3KA_FL Ki (nM)” value in test [1] is “≦0.229 nM”. Moreover, the “PI3KA_Act Ki” value in test [2] was 0.078 nM.

Take `C[C@H]1COCCN1c1nc(-c2cnc(N)nc2)c2c(n1)N([C@H]1CCN(S(N)(=O)=O)C1)CC2` [Example 100]: the “PI3KA_FL Ki (nM)” value in test [1] was “≦0.229 nM”. The “PI3KA_Act Ki” value in test [2] stood at 0.132 nM.

For `CCS(=O)(=O)N1CC[C@H](N2CCc3c(-c4cnc(N)nc4)nc(N4CCOCC4)nc32)C1` [Example 101], the “PI3KA_FL Ki (nM)” value in test [1] is on record as “≦0.229 nM”. Also, the “PI3KA_Act Ki” value in test [2] stood at 0.093 nM.

For `Nc1ncc(-c2nc(N3CCOCC3)nc3c2CCN3[C@H]2CCN(S(=O)(=O)C3CC3)C2)cn1` [Example 102], the “PI3KA_FL Ki (nM)” value in test [1] was “≦0.229 nM”. Further, the “PI3KA_Act Ki” value in test [2] is on record as 0.067 nM.

With `CNS(=O)(=O)O[C@H]1C[C@@H](N2CCc3c(-c4cnc(N)nc4)nc(N4CCOCC4)nc32)C1` [Example 104], the “PI3KA_FL Ki (nM)” value in test [1] is “≦0.229 nM”. Further, in test [2], the “PI3KA_Act Ki” value is on record as 0.079 nM.

For the compound `CS(=O)(=O)N[C@H]1C[C@H](N2CCc3c(-c4cnc(N)nc4)nc(N4CCOCC4)nc32)C1` [Example 105], in test [1], the “PI3KA_FL Ki” value is 0.285 nM. Besides, the “PI3KA_Act Ki” value in test [2] is given as 0.157 nM.

As for `CC(C)S(=O)(=O)N1CC[C@H](N2CCc3c(-c4cnc(N)nc4)nc(N4CCOCC4)nc32)C1` [Example 106], the “PI3KA_FL Ki (nM)” value in test [1] is given as “≦0.229 nM”. The “PI3KA_Act Ki” value in test [2] was determined as 0.064 nM.

For the compound `CCS(=O)(=O)N1CC(N2CCc3c(-c4cnc(N)nc4)nc(N4CCOCC4)nc32)C1` [Example 108], the “PI3KA_FL Ki (nM)” value in test [1] was “≦0.229 nM”. Further, in test [2], the “PI3KA_Act Ki” value is on record as 0.122 nM.

As for `Nc1ncc(-c2nc(N3CCOCC3)nc3c2CCN3C2CN(S(=O)(=O)C3CC3)C2)cn1` [Example 109], the “PI3KA_FL Ki (nM)” value in test [1] was “≦0.229 nM”. For the same compound, the “PI3KA_Act Ki” value in test [2] came out at 0.118 nM.

As to `CC(C)S(=O)(=O)N1CC[C@@H](N2CCc3c(-c4cnc(N)nc4)nc(N4CCOCC4)nc32)C1` [Example 111], the “PI3KA_FL Ki (nM)” value in test [1] is on record as “≦0.229 nM”. Also, the “PI3KA_Act Ki” value in test [2] stood at 0.151 nM.

With `C[C@H]1COCCN1c1nc(-c2cnc(N)nc2)c2c(n1)N(C1CN(S(C)(=O)=O)C1)CC2` [Example 113], in test [1], the “PI3KA_FL Ki (nM)” value is given as “≦0.229 nM”. Moreover, the “PI3KA_Act Ki” value in test [2] came to 0.289 nM.

Regarding `CCS(=O)(=O)N1CC(N2CCc3c(-c4cnc(N)nc4)nc(N4CCOC[C@@H]4C)nc32)C1` [Example 115], the “PI3KA_FL Ki (nM)” value in test [1] is reported as “≦0.229 nM”. The “PI3KA_Act Ki” value in test [2] amounted to 0.105 nM.

On to `CNS(=O)(=O)N1C[C@@H](N2CCc3c(-c4cnc(N)nc4)nc(N4CCOC[C@@H]4C)nc32)[C@H](OC)C1` [Example 117], for which, in test [1], the “PI3KA_FL Ki” value is recorded as 0.256 nM. In test [2], the “PI3KA_Act Ki” value was found to be 0.179 nM.

`C[C@H]1COCCN1c1nc(-c2cnc(N)nc2)c2c(n1)N(C1CN(S(=O)(=O)C3CC3)C1)CC2` [Example 118]: in test [1], the “PI3KA_FL Ki (nM)” value is given as “≦0.229 nM”. Moreover, in test [2], the “PI3KA_Act Ki” value is 0.030 nM.

In the case of `CCS(=O)(=O)N1CC[C@H](N2CCc3c(-c4cnc(N)nc4)nc(N4CCOC[C@@H]4C)nc32)C1` [Example 119], the “PI3KA_FL Ki (nM)” value in test [1] is “≦0.229 nM”. The “PI3KA_Act Ki” value in test [2] is 0.059 nM.

Consider `C[C@H]1COCCN1c1nc(-c2cnc(N)nc2)c2c(n1)N(C1CN(S(=O)(=O)N(C)C)C1)CC2` [Example 120], for which the “PI3KA_FL Ki (nM)” value in test [1] was “≦0.229 nM”. In addition, the “PI3KA_Act Ki” value in test [2] was determined as 0.030 nM.

On to `C[C@H]1COCCN1c1nc(-c2cnc(N)nc2)c2c(n1)N([C@H]1CCN(S(=O)(=O)C3CC3)C1)CC2` [Example 121], for which, in test [1], the “PI3KA_FL Ki (nM)” value is “≦0.229 nM”. In addition, the “PI3KA_Act Ki” value in test [2] was found to be 0.056 nM.

In the case of `CNS(=O)(=O)N1CC(N2CCc3c(-c4cnc(N)nc4)nc(N4CCOC[C@@H]4C)nc32)C1` [Example 122], the “PI3KA_FL Ki (nM)” value in test [1] is “≦0.229 nM”. For the same compound, the “PI3KA_Act Ki” value in test [2] is given as 0.064 nM.

As for `COC(=O)N1CC[C@H](N2CCc3c(-c4cnc(N)nc4)nc(N4CCOC[C@@H]4C)nc32)C1` [Example 123], in test [1], the “PI3KA_FL Ki (nM)” value is on record as “≦0.229 nM”. Also, in test [2], the “PI3KA_Act Ki” value turned out to be 0.069 nM.

Consider `CCOC(=O)N1CC[C@H](N2CCc3c(-c4cnc(N)nc4)nc(N4CCOC[C@@H]4C)nc32)C1` [Example 125], for which the “PI3KA_FL Ki (nM)” value in test [1] is on record as “≦0.229 nM”. Besides, the “PI3KA_Act Ki” value in test [2] was determined as 0.087 nM.

Consider `C[C@H]1COCCN1c1nc(-c2cnc(N)nc2)c2c(n1)N(C1CN(S(N)(=O)=O)C1)CC2` [Example 126], for which the “PI3KA_FL Ki (nM)” value in test [1] is “≦0.229 nM”. In addition, the “PI3KA_Act Ki” value in test [2] is listed as 0.219 nM.

Take `CNS(=O)(=O)N1C[C@@H](O)[C@H](N2CCc3c(-c4cnc(N)nc4)nc(N4CCOC[C@@H]4C)nc32)C1` [Example 128]: in test [1], the “PI3KA_FL Ki (nM)” value is on record as “≦0.229 nM”. Further, in test [2], the “PI3KA_Act Ki” value is 0.126 nM.

Consider `CC(C)S(=O)(=O)N1CC[C@H](N2CCc3c(-c4cnc(N)nc4)nc(N4CCOC[C@@H]4C)nc32)C1` [Example 131], for which the “PI3KA_FL Ki (nM)” value in test [1] was “≦0.229 nM”. The “PI3KA_Act Ki” value in test [2] turned out to be 0.044 nM.

Regarding `CC(C)(C)N1CCc2c(-c3cnc(N)nc3)nc(N3CCOCC3)nc21` [Example 132], the “PI3KA_FL Ki (nM)” value in test [1] is recorded as “≦0.229 nM”. The “PI3KA_Act Ki” value in test [2] was 0.150 nM.

For `CC(=O)N1CC(OC(=O)N2CC[C@@H](N3CCc4c(-c5cnc(N)nc5)nc(N5CCOC[C@@H]5C)nc43)C2)C1` [Example 136], the “PI3KA_FL Ki (nM)” value in test [1] is recorded as “≦0.229 nM”. The “PI3KA_Act Ki” value in test [2] is 0.099 nM.

Values taken from US9260439B2, “Dihydropyrrolopyrimidine derivatives” (PFIZER INC., priority 2014, dated 2016).
